According to article PMC7083565, “In vitro metabolism, reaction phenotyping, enzyme kinetics, CYP inhibition and induction potential of ataluren” (Pharmacology Research & Perspectives, 2020):
Where two headings read alike, the source gives them in different places.

Legend:
CYP3A4/5 = assay: CYP inhibition in pooled human liver microsomes: CYP3A4/5; assay type: in vitro ADME
Method: The final concentration of each probe substrate was near the experimentally determined Km value for the indicated enzyme. Ataluren or prototypical CYP inhibitors (positive controls) was incubated (n = 3) with probe substrates and HLM in 100 mmol/L phosphate buffer (pH 7.4) in a total volume of approximately 0.25 mL, and the reactions were initiated by the addition of 1 mmol/L NADPH at 37°C. The reactions were carried out using previously established conditions to ensure linearity with respect to protein concentration and incubation time (Table S1). Incubations were stopped with the addition of ice‐cold acetonitrile. Metabolite formation in incubations with test compound and control inhibitors was assessed with LC‐MS/MS methods for each of the reaction products as described in Table S2. […] After 7 minutes incubation at 37°C, the reaction was stopped by the addition of ice‐cold acetonitrile, followed by membrane plate filtration. The filtrates were used for LC‐MS/MS analysis. Enzyme activity remaining at each nonzero ataluren concentration after incubation was normalized against control sample (zero ataluren concentration, enzyme activity = 100%), and the % remaining enzyme activity values were used for IC50 calculation. IC50 values were determined by nonlinear regression with GraphPad Prism 5 using the following four‐parameter sigmoidal‐logistic IC50 equation: Fit=background+range-background/[1+I/IC50^slope]
Where, I is the inhibitor concentration, and background was set to 0 and range to 100, as percent of control values are utilized. K i was determined by nonlinear regression with GraphPad Prism 5 using best fit model.

[1] = Ataluren glucuronidation kinetics, human intestinal microsomes; assay type: in vitro ADME; conditions: for CLint,u,UGT (scaled) / K m / K m, u / V max: HIM; for CLint,u,UGT (scaled): 20.6 mg protein/g tissue; for K m / K m, u / V max: mean ± SE; for K m / K m, u / V max / fraction unbound at 15 min: n = 3; for fraction unbound at 15 min / microsomal CLint: human, pH 7.5, HIM; for fraction unbound at 15 min: pooled human intestinal microsomes incubation mixture, mean ± SD, read-out: fu,inc; for microsomal CLint: pooled human intestinal microsomes, read-out: CLint,u,UGT
Method: Ataluren at 0.5, 2.5, 12.5, 25, 50, 100, 200, and 400 µmol/L, was incubated (n = 3) at 37°C with recombinant human UGT1A9 and with pooled microsomes from human liver, kidney, and intestine (0.025 mg protein/mL, preactivated with alamethicin at 20 µg/mL) in Tris‐HCl buffer (0.1 mol/L, pH 7.5), in the presence of 1 mmol/L EDTA, 5 mmol/L MgCl2, with or without 0.5%, 1%, or 2% BSA. The incubation (100 µL final volume with 0.5% DMSO) was started by adding an equal volume of UDPGA (5 mmol/L) in Tris‐HCl buffer (0.1 mol/L, pH 7.5). After 30 minutes incubation, the incubation mixtures were combined with 0.3 mL of an internal standard solution in acetonitrile with 1% formic acid, followed by membrane plate filtration. The filtrates were used for LC‐MS/MS analysis to quantify the formation of ataluren‐O‐1β‐acyl glucuronide. Detailed LC‐MS/MS conditions are summarized in LC‐MS/MS Analysis section. Ataluren acyl glucuronide formation rate after 30 minutes incubation was calculated using the amount of metabolite formed (pmol) divided by the protein amount in the incubation sample (0.0025 mg) and the incubation time (30 minutes). Ataluren glucuronidation kinetic parameters were determined with and without adjusting BSA binding by nonlinear regression (GraphPad Prism, 5version 5.04, GraphPad Software, Inc.) using Michaelis‐Menten equation which was the best fit compared with other models. The intrinsic clearance was calculated as CLint = Vmax/Km. In order to compare unbound intrinsic clearance by glucuronidation (CLint,u,UGT) in different tissues, CLint,u,UGT was expressed per gram of tissue by correcting the values for the microsomal protein yield, resulting in scaled CLint,u,UGT. Microsomal protein yields of 40.0, 12.8, and 20.6 mg protein/g tissue were used for hepatic, renal, and intestinal data, respectively. ^26
The high‐throughput membrane ultrafiltration method ^27 was used to determine the fraction unbound in the incubation (n = 3). Incubation mixtures and procedures were essentially the same as the above except that UDPGA (5 mmol/L) was replaced with Tris‐HCl buffer (0.1 mol/L, pH 7.5). After 15 minutes incubation, aliquot was transferred to a Millipore Multiscreen Ultracel‐10 filter plate (10 kDa molecular mass cut off; EMD Millipore). The plate was centrifuged at 37°C and 3710 g. After 30 minutes centrifugation, aliquots of ultrafiltrates and incubation mixtures prior to ultrafiltration were quenched with an internal standard solution in acetonitrile, followed by membrane plate filtration. The filtrates were used for LC‐MS/MS analysis to quantify the concentration of ataluren. The same LC‐MS/MS conditions described above are summarized in LC‐MS/MS Analysis section. The free fraction = Cu/Cm, where Cu is the concentration of ataluren in the ultrafiltrate and Cm is the concentration of ataluren in the incubation system before centrifugation. Unbound Km (Km, u) was recalculated by applying Michaelis‐Menten equation using free ataluren concentrations after correcting BSA binding at each ataluren and BSA concentration level.
Quantification of ataluren‐O‐1β‐acyl glucuronide formation was conducted on an Accela pump and a PAL autosampler equipped with a TSQ Quantum Ultra mass spectrometer (Thermo Fisher Scientific). A Waters Acquity BEH column (C18, 1.7 µm, 50 × 2.1 mm; Waters Cooperation) was used and maintained at 50°C. The mobile phases were 0.1% formic acid in water (A) and acetonitrile (B). The flow rate was 0.6 mL/min and gradient program was as follows: linear gradient from 0% B to 95% B in 0.5 minutes and hold isocratic at 95% B for 1 minute; linear gradient from 95% B to 0% B in 0.1 minutes and hold isocratic at 0% B for 0.4 minutes. TSQ Quantum Ultra mass spectrometer was equipped with a heated electrospray ionization source operated in negative‐ion mode with a vaporizer temperature of 350°C, capillary temperature of 380°C, and spray voltage of 3 kV. […]

Compound: O=C(O)c1cccc(-c2noc(-c3ccccc3F)n2)c1 [ataluren, Ataluren]
- IC50 (CYP3A4/5; pH 7.4, CYP3A4/5, HLM, estimated, concentrations up to 400 μmol/L, substrate not stated): > 400 µM
- IC50 (CYP3A4/5; pH 7.4, probe midazolam (1′-hydroxylation), Midazolam 1′-hydroxylase, pooled HLM, n=3): > 400 µM
- IC50 (CYP3A4/5; pH 7.4, probe testosterone (6β-hydroxylation), Testosterone 6β-hydroxylase, pooled HLM, n=3): > 400 µM
- CLint,u,UGT (scaled) ([1]; 0% BSA): 0.974 mL/min/g of tissue
- K m ([1]; 0% BSA): 15.8 ± 3.35 µM
- K m, u ([1]; 0% BSA): 15.8 ± 3.10 µM
- V max ([1]; 0% BSA): 747 ± 32.7 pmol/min/mg
- CLint,u,UGT (scaled) ([1]; 0.5% BSA): 3.38 mL/min/g of tissue
- K m ([1]; 0.5% BSA): 43.8 ± 6.88 µM
- K m, u ([1]; 0.5% BSA): 4.03 ± 0.646 µM
- V max ([1]; 0.5% BSA): 660 ± 28.3 pmol/min/mg
- CLint,u,UGT (scaled) ([1]; 1% BSA): 3.64 mL/min/g of tissue
- K m ([1]; 1% BSA): 82.4 ± 11.3 µM
- K m, u ([1]; 1% BSA): 4.02 ± 0.544 µM
- V max ([1]; 1% BSA): 711 ± 31.2 pmol/min/mg
- CLint,u,UGT (scaled) ([1]; 2% BSA): 3.39 mL/min/g of tissue
- K m ([1]; 2% BSA): 145 ± 22.0 µM
- K m, u ([1]; 2% BSA): 4.74 ± 0.835 µM
- V max ([1]; 2% BSA): 767 ± 54.6 pmol/min/mg
- maximal effect of BSA on CLint,u (increase) ([1]; human intestine microsomes, with vs without BSA): ~3.7 fold
- fraction unbound at 15 min ([1]; 0% BSA): 1 ± 0.137
- fraction unbound at 15 min ([1]; 0.5% BSA): 0.1 ± 0.0021
- fraction unbound at 15 min ([1]; 1% BSA): 0.056 ± 0.002
- fraction unbound at 15 min ([1]; 2% BSA): 0.036 ± 0.002
- microsomal CLint ([1]; 0% BSA): 47.3 µL/min/mg
- microsomal CLint ([1]; 0.5% BSA): 164 µL/min/mg
- microsomal CLint ([1]; 1% BSA): 177 µL/min/mg
- microsomal CLint ([1]; 2% BSA): 164 µL/min/mg
